Source: patent publication US5332733A, “Heterocyclically substituted piperazinoakylbenzoxazine and piperazinoalkylbenzothiazine compounds, processes for preparing them, and medicaments containing them” (Kali-Chemie Pharma GmbH, priority 1990, dated 1994)

Columns and labels:
[1] = test system: histamine-induced anaphylactoid cutaneous reaction; experiment: Inhibition of histamine-induced anaphylactoid cutaneous reaction in rats; type: in vivo, Sprague-Dawley rats; details: Rattus norvegicus, 1 h, 2 × 10^-5 mole/kg per os, one hour before ovalbumin challenge
Experimental: (§1) 1. Determining Inhibition of Passive Cutaneous Anaphylaxis (PCA) and Histamine-Induced Anaphylactoid Cutaneous Reaction
(§2) The inhibition of the passive cutaneous anaphylaxis and of the anaphylactoid cutaneous reaction induced by histamine was determined as follows:
(§3) Sprague-Dawley rats having a body weight of 150-180 g were injected intradermally in one flank with 50 μl of a 1:75 dilution of the IgE-rich ovalbumin antiserum in physiological saline solution to passively sensitize them to ovalbumin.
(§4) 24 hours after sensitization a solution of 8.25 mg/kg of ovalbumin and 26.4 mg/kg of a blue dye (Evans's Blue) was administered to the rats intravenously according to Martin et al. to trigger passive cutaneous anaphylaxis.
To determine the histamine-induced anaphylactoid skin reaction, the animals are injected intradermally in the flank opposite to the antiserum administration with 50 μl of a physiological saline solution containing 0.8 mg/ml histamine directly before the intravenous injection of the solution containing the ovalbumin and the blue dye.
(§5) On the day of the experiment the test substances were dissolved in distilled water which contained 1 vol. % dimethylformamide and 1 vol. % of Tween™ 20 (=polyoxyethylene (20) sorbitan monolaurate). One hour before administration of the ovalbumin challenge, each animal was orally administered 2×10^-5 mole/kg of test substance in 0.5 ml of solution. For comparison purposes a control group received only the solvent.
(§6) The edematous anaphylactic (PCA) and anaphylactoid (histamine-induced) reactions caused by the stimulation of the intravenous ovalbumin injection, which manifested themselves by edema formation, swelling and exudation of blue dye, were evaluated 30 minutes after their initiation by the intravenous ovalbumin injection. This was done by visually determining the extent to which the blue dye emerged at the sites of edema formation. The percentage inhibition of anaphylactic and anaphylactoid reactions induced by the test substances in comparison with the reactions of the control animals not treated with any test substance was determined using comparison scales.
(§7) The results obtained using compounds of formula I according to the foregoing test methods are shown in the following Table A. The example numbers given for the compounds of formula I relate to the subsequent preparative examples.

[2] = test system: passive cutaneous anaphylaxis (PCA); experiment: Inhibition of passive cutaneous anaphylaxis (PCA) in rats; type: in vivo, Sprague-Dawley rats; details: Rattus norvegicus, 1 h, 2 × 10^-5 mole/kg per os, one hour before ovalbumin challenge
Experimental: as §1
The PCA reaction is carried out following the methods described by Goose et al. (J. N. Immunology 16 (1969), 749) and by Martin et al. (Arch. Pharmacol. 316 (1981), 186).
The IgE-rich ovalbumin antiserum used in the test was obtained from immunized Brown-Norway rats. The were immunized with an intraperitoneal injection of a mixture of 100 μg of ovalbumin with a Bordetella pertussis suspension (Vaxicoq™, Manufactured by Institute Merieux, containing 5×10^9 organisms and 1.25 mg Al(OH)3). After 20 days the animals were re-immunized with a further intraperitoneal injection of a solution of 10 μg ovalbumin in 0.5 ml physiological saline solution. After a further four days the blood was removed from the animals and centrifuged. The resulting antiserum was stored at -20° C. until use.
as §2, §3, §4, §5, §6, §7

| Compound | inhibition in vivo at 20 µmol/kg [1] [%] | inhibition in vivo at 20 µmol/kg [2] [%] |
| --- | --- | --- |
| Cc1ccnc(N2CCN(CCCCC3Sc4ccccc4NC3=O)CC2)c1 (stereo not drawn) [Example 1, 2-{4-[4-(4-methylpyridin-2-yl)-piperazin-1-yl]butyl}-2H-1,4-benzothiazine-3(4H)-one] | 55 | 88 |
| Cc1ccnc(N2CCN(CCCCC3Oc4ccccc4NC3=O)CC2)c1 (stereo not drawn) [Example 7] | 40 | 70 |
| Cc1ccnc(N2CCN(CCCC3Sc4ccccc4NC3=O)CC2)c1 (stereo not drawn) [Example 8] | 60 | 73 |
| Cc1ccnc(N2CCN(CCCC3Oc4ccccc4NC3=O)CC2)c1 (stereo not drawn) [Example 9] | 30 | 60 |
| Cc1ccnc(N2CCN(CCCC3Sc4ccccc4NC3=S)CC2)c1 (stereo not drawn) [Example 11] | 20 | 55 |
| O=C1Nc2ccccc2SC1CCCN1CCN(c2ccc(Cl)cn2)CC1 (stereo not drawn) [Example 15] | 30 | 60 |
